According to US9550728B2, “Thermo-responsive draw solute for forward osmosis and method for water desalination and purification using the same” (SEOUL NATIONAL UNIVERSITY R&DB FOUNDATION, priority 2011, dated 2017):
Each block holds one compound with its values, some of them ahead of it.

Legend:
[1] = Measurement of transmittances of aqueous draw solute solutions according to temperature variation (UV/IR spectrometer); assay type: physicochemical
Method: For this observation, the transmittances of aqueous solutions of the draw solutes were measured using a UV/IR spectrometer.

[2] = Measurement of flows and fluxes of water in forward osmosis through cellulose acetate semi-permeable membrane (brine vs draw solution)
Method: Referring to FIG. 11, the system has a structure in which glass tubes are arranged to face each other through a semi-permeable membrane. Unpurified water is arranged in one of the glass tubes and a draw solution is arranged in the other glass tube. After the glass tubes are placed in a temperature-controllable water bath, water desalination and purification experiments are conducted. Specifically, the experiments using LCST draw solutes are carried out in the order of low temperature (homogeneous phase) and high temperature (phase transition). The experiments using UCST draw solutes are carried out in the order of high temperature (homogeneous phase) and low temperature (phase transition). As the semi-permeable membrane, a cellulose acetate semi-permeable membrane is used. Specifically, the semi-permeable membrane includes a support layer composed of a polyester fiber coated with polyethylene and a dense layer composed of a cellulose triacetate fiber. The semi-permeable membrane is characterized by the ability to remove 95% or more of salts and low-molecular-weight materials.
Forward osmosis experiments were conducted at laboratory level using the thermo-responsive draw solutes synthesized above. The fluxes and directivities of water at low/high temperatures were confirmed with varying concentrations of brines and the draw solutions.
A stirrer was installed to maintain a uniform state of the solution in each glass tube and a thermostatic bath was installed for temperature control. After the temperature was maintained constant, the flux of water was measured. The amount of water flowing through the membrane was expressed in volume per unit area of the membrane and unit time (L/m^2h, LMH). The fluxes and directivities of water at low and high temperatures were measured at time points of each experiment. For better visual observation, a slight amount of dye was added to the system.

[3] = Verification of reproducibility of forward osmosis experiments (repeated low/high temperature cycles); settings: 2.0 M nBu-DETA, positive = flow from brine to nBu-DETA solution
Text: A draw solute for a forward osmosis process should be able to be continuously reused after the process. […] FIG. 26 is a graph showing changes in the flux of water during repeated experiments using 2.0 M nBu-DETA.
In a conventional process using ammonium carbonate/ammonium hydroxide, recondensation is required to reuse recovered ammonia and carbon dioxide molecules. In contrast, in the three repeated cycles of forward osmosis using nBu-DETA as a draw solute, any special process for dissolution except stirring was not carried out but the solute having undergone a phase transition were dissolved when hot water was exchanged with cold water in the thermostatic bath. As a result, similar levels of fluxes were obtained, which can be seen from FIG. 26 and Table 9.

[4] = aqueous solution of LCST draw solute at temperatures lower than the reference temperature
[5] = aqueous solution of UCST draw solute at temperatures equal to or higher than the reference temperature

Structure (SMILES): CCCCCCOCCOCCO [DEH]
- Transmittance [1, 4]: 100%
- Flux (LMH) ([2]; 2 M DEH, 0.025 M NaCl, 40 (+0.5)° C., flow direction DEH→NaCl): 1.6422 LMH
- Flux (LMH) ([2]; 2 M DEH, 0.05 M NaCl, 40 (+0.5)° C., DEH→NaCl): 1.1 LMH
- Flux (LMH) ([2]; 2 M DEH, 0.1 M NaCl, 40 (+0.5)° C., DEH→NaCl): 0.71 LMH
- Flux (LMH) ([2]; 2 M DEH, 0.15 M NaCl, 40 (+0.5)° C., DEH→NaCl): 0.36 LMH
- Flux (LMH) ([2]; 4.0 M DEH, 0.60 M NaCl, 18 (±0.5)° C., flow direction NaCl→DEH): 0.29 LMH

Structure (SMILES): CC(C)C(=O)O [IBA]
- Transmittance [1, 5]: 100%

Structure (SMILES): CCN(CC)CCNC(=O)C(C)C [iBu-DEEA]
- Transmittance [1, 4]: 100%

Structure (SMILES): CC(C)C(N)=O [IBAm]
- Transmittance [1, 5]: 100%

Structure (SMILES): CCCCCOCC(C)O (stereo not drawn) [PNP]
- Transmittance [1, 4]: 100%

Structure (SMILES): CCCCNC(=O)CC [N-BPA]
- Transmittance [1, 4]: 100%

Structure (SMILES): OCCOc1ccccc1 [EGPE]
- Transmittance [1, 5]: 100%
- Flux of water from EGPE to NaCl ([2]; 6.4 M EGPE, 0.15 M brine, 5° C. (phase transition)): 0.036 LMH
- Flux of water from NaCl to EGPE ([2]; 6.4 M EGPE, 0.3 M brine, 50° C.): 0.14 LMH

Continued, values first:

- Transmittance [1, 4]: 100%
Structure (SMILES): CCCCC(=O)NCCN(CC)CC [Val-DEEA]

- Transmittance [1, 4]: 100%
Structure (SMILES): CCCC(=O)NCCCN(C)CCCNC(=O)CCC [nBu-DAPMA]

- Transmittance [1, 4]: 100%
Structure (SMILES): CCCC(=O)NCCN(C(C)C)C(C)C [nBu-DIPA]

- Transmittance [1, 4]: 100%
Structure (SMILES): CCCCC(=O)NCCCN(C)CCCNC(=O)CCCC [Val-DAPMA]

- Flux (L/m^2h) ([3]; 18° C., 1 Cycle): 0.61 L/m^2h
- Flux (L/m^2h) ([3]; 18° C., 2 Cycle): 0.71 L/m^2h
- Flux (L/m^2h) ([3]; 18° C., 3 Cycle): 0.71 L/m^2h
- Flux (L/m^2h) ([3]; 70° C., 1 Cycle): −0.64 L/m^2h
- Flux (L/m^2h) ([3]; 70° C., 2 Cycle): −0.79 L/m^2h
- Flux (L/m^2h) ([3]; 70° C., 3 Cycle): −0.61 L/m^2h
- Transmittance [1, 4]: 100%
- Flux of water ([2]; 0.5M nBu-DETA draw solution, 0.050M NaCl, 18 (±0.5)° C., flow direction NaCl→nBu-DETA): 1.3 LMH
- Flux of water ([2]; 0.5M nBu-DETA, 0.10M NaCl, 18 (±0.5)° C., NaCl→nBu-DETA): 0.90 LMH
- Flux of water ([2]; 0.5M nBu-DETA, 0.15M NaCl, 18 (±0.5)° C., NaCl→nBu-DETA): 0.52 LMH
- Flux of water ([2]; 1.0M nBu-DETA, 0.10M NaCl, 18 (±0.5)° C., NaCl→nBu-DETA): 1.5 LMH
- Flux of water ([2]; 1.0M nBu-DETA, 0.15M NaCl, 70 (±0.5)° C., nBu-DETA→NaCl): 0.93 LMH
- Flux of water ([2]; 1.0M nBu-DETA, 0.20M NaCl, 18 (±0.5)° C., NaCl→nBu-DETA): 0.77 LMH
- Flux of water ([2]; 1.0M nBu-DETA, 0.2M NaCl, 70 (±0.5)° C., nBu-DETA→NaCl): 0.96 LMH
- Flux of water ([2]; 1.0M nBu-DETA, 0.30M NaCl, 18 (±0.5)° C., NaCl→nBu-DETA): 0.52 LMH
- Flux of water ([2]; 1.0M nBu-DETA, 0.35M NaCl, 70 (±0.5)° C., nBu-DETA→NaCl): 1.4 LMH
- Flux of water ([2]; 1.0M nBu-DETA, 0.5M NaCl, 70 (±0.5)° C., nBu-DETA→NaCl): 1.8 LMH
- Flux of water ([2]; 1.6M nBu-DETA, 0.15M NaCl, 70 (±0.5)° C., nBu-DETA→NaCl): 1.2 LMH
- Flux of water ([2]; 1.6M nBu-DETA, 0.25M NaCl, 70 (±0.5)° C., nBu-DETA→NaCl): 1.2 LMH
- Flux of water ([2]; 1.6M nBu-DETA, 0.35M NaCl, 70 (±0.5)° C., nBu-DETA→NaCl): 1.3 LMH
- Flux of water ([2]; 1.6M nBu-DETA, 0.5M NaCl, 70 (±0.5)° C., nBu-DETA→NaCl): 1.2 LMH
- Flux of water ([2]; 2.0M nBu-DETA, 0.05M NaCl, 70 (±0.5)° C., flow direction nBu-DETA→NaCl): −0.071 LMH
- Flux of water ([2]; 2.0M nBu-DETA, 0.1M NaCl, 70 (±0.5)° C., nBu-DETA→NaCl): 0.36 LMH
- Flux of water ([2]; 2.0M nBu-DETA, 0.15M NaCl, 70 (±0.5)° C., nBu-DETA→NaCl): 0.75 LMH
- Flux of water ([2]; 2.0M nBu-DETA, 0.20M NaCl, 18 (±0.5)° C., NaCl→nBu-DETA): 1.7 LMH
- Flux of water ([2]; 2.0M nBu-DETA, 0.25M NaCl, 70 (±0.5)° C., nBu-DETA→NaCl): 0.96 LMH
- Flux of water ([2]; 2.0M nBu-DETA, 0.35M NaCl, 70 (±0.5)° C., nBu-DETA→NaCl): 1.2 LMH
- Flux of water ([2]; 2.0M nBu-DETA, 0.40M NaCl, 18 (±0.5)° C., NaCl→nBu-DETA): 0.65 LMH
- Flux of water ([2]; 2.0M nBu-DETA, 0.5M NaCl, 70 (±0.5)° C., nBu-DETA→NaCl): 1.4 LMH
- Flux of water ([2]; 2.0M nBu-DETA, 0.60M NaCl, 18 (±0.5)° C., NaCl→nBu-DETA): 0.26 LMH
Structure (SMILES): CCCC(=O)NCCN(CCNC(=O)CCC)C(=O)CCC [nBu-DETA]
